9 compounds from PubChem BioAssay (NCI) can be followed below.

Structures are written as SMILES.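 Where inhibition never reached the appropriate level, the endpoint shown equals the highest concentration tested. Otherwise, values were interpolated linearly from a five-concentration, 48-hour dose response in 96-well plates. GI50 = concentration required for 50% inhibition of growth. The concentration for full growth arrest is given as TGI.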

Test systems include UACC-62 melanoma; NCI-H23 lung; K-562 leukemia; SF-539 CNS; ACHN renal; SF-268 CNS; CCRF-CEM leukemia; KM12 colon; U251 CNS; RXF 393 renal.
Assay in all cases: inhibition of tumour cell growth, NCI panel, 48 h

As to `NC1=NC(c2ccc(Cl)cc2)C2=C(N1)/C(=C/c1ccc(Cl)cc1)CCC2` (centres undefined), the GI50 in the test with UACC-62 melanoma was 13.3 µM; in the test with NCI-H23 lung, 5.98 µM; with K-562 leukemia, 6.92 µM; in the test with SF-539 CNS it was 19.9 µM; in the test with ACHN renal it was 18 µM; in the test with SF-268 CNS, 7.35 µM. Moreover, the GI50 in the test with CCRF-CEM leukemia is 5.95 µM; in the test on KM12 colon, 2.32 µM; in the test on U251 CNS it was 3.38 µM; in the test on RXF 393 renal it was 2.05 µM. Besides, the TGI is 34.8 µM in the test on UACC-62 melanoma; 26.7 µM in the test with NCI-H23 lung; over 87.8 µM in the test on K-562 leukemia; over 78 µM in the test on SF-539 CNS; over 66.2 µM in the test on ACHN renal; over 38.9 µM with SF-268 CNS. Also, the TGI in the test on CCRF-CEM leukemia is over 81.5 µM; in the test with KM12 colon it was 5.27 µM; with U251 CNS, 12.2 µM; with RXF 393 renal, 4.45 µM.
`COc1ccccc1C#Cc1ccccc1C#CCCCCCC#Cc1ccccc1C#Cc1ccccc1OC`: the GI50 in the test with UACC-62 melanoma is over 100 µM; with NCI-H23 lung, 43.9 µM; with K-562 leukemia, 31 µM; in the test on SF-539 CNS, over 100 µM; with ACHN renal it was over 100 µM; with SF-268 CNS, 96.5 µM. Moreover, the GI50 was 65.4 µM in the test with CCRF-CEM leukemia, 75 µM in the test on KM12 colon, 97.1 µM in the test on U251 CNS and 26.6 µM with RXF 393 renal. Further, the TGI in the test with UACC-62 melanoma, in the test on NCI-H23 lung, with K-562 leukemia, in the test on SF-539 CNS, with ACHN renal and in the test with SF-268 CNS was over 100 µM throughout. The TGI in the test on CCRF-CEM leukemia, with KM12 colon, in the test on U251 CNS and with RXF 393 renal was over 100 µM each time.
For the compound `CN(C)C(=O)c1cc2cnc(Nc3ccc(-c4csc5c(=O)cc(N6CCOCC6)oc45)cc3)nc2n1C1CCCC1`, the GI50 was 0.129 µM in the test with UACC-62 melanoma; 0.182 µM with NCI-H23 lung; 0.285 µM with K-562 leukemia; 0.154 µM with SF-539 CNS; 0.187 µM with ACHN renal; 0.222 µM with SF-268 CNS. For the same compound, the GI50 was 0.205 µM in the test with CCRF-CEM leukemia, 0.0414 µM in the test on KM12 colon, 0.2 µM with U251 CNS and 0.163 µM in the test with RXF 393 renal. The TGI in the test on UACC-62 melanoma was 0.367 µM; in the test on NCI-H23 lung, 0.87 µM; in the test with K-562 leukemia, over 100 µM; in the test on SF-539 CNS, 0.417 µM; with ACHN renal, 1.25 µM; with CCRF-CEM leukemia, 18.3 µM. Also, the TGI with KM12 colon was 0.682 µM; in the test with U251 CNS, over 100 µM; in the test with RXF 393 renal, 0.388 µM.
Take `CCCCOP1(=O)C=C(C)C(=C(Cl)Cl)C(C)=C1` (centres undefined): the TGI in the test on UACC-62 melanoma was 21.8 µM; with NCI-H23 lung, 34.7 µM; with K-562 leukemia, over 100 µM; in the test with SF-539 CNS it was 83.3 µM; with ACHN renal it was 23.6 µM; with SF-268 CNS it was 27.3 µM. Besides, the TGI is over 41.4 µM in the test on CCRF-CEM leukemia, 4.45 µM with KM12 colon, 22.4 µM in the test on U251 CNS and 24.4 µM in the test with RXF 393 renal.
For `C=CC1CC12C(=O)C1OC2(C)C2C(=O)c3c(O)ccc(O)c3C(=O)C12` (centres undefined), the GI50 was 2.37 µM in the test with UACC-62 melanoma; 2.95 µM in the test on NCI-H23 lung; 2.48 µM with K-562 leukemia; 4.5 µM with SF-539 CNS; 1.77 µM with ACHN renal; 2.8 µM in the test with SF-268 CNS. Moreover, the GI50 in the test on CCRF-CEM leukemia was 1.3 µM; with KM12 colon it was 5.83 µM; with U251 CNS it was 4.3 µM; in the test on RXF 393 renal, 2.11 µM. Also, the TGI in the test on UACC-62 melanoma amounted to 6.31 µM; in the test with NCI-H23 lung, 8.01 µM; in the test on K-562 leukemia it was 6.95 µM; in the test with SF-539 CNS, 14.8 µM; with ACHN renal, 4.37 µM; in the test with SF-268 CNS, 9.58 µM. The TGI is 16 µM in the test on CCRF-CEM leukemia, 17.3 µM in the test with KM12 colon, 12.6 µM with U251 CNS and 5.3 µM with RXF 393 renal.
Turning to `NC(=O)C(c1ccccc1)N1CCOCC1` (centres undefined), the TGI in the test on UACC-62 melanoma, with NCI-H23 lung, in the test on K-562 leukemia, in the test with SF-539 CNS, with ACHN renal and with SF-268 CNS was over 100 µM throughout. Also, the TGI in the test with CCRF-CEM leukemia, with KM12 colon, with U251 CNS and with RXF 393 renal was over 100 µM in each case.
As to `N#CC1=C(N)NC(=O)NC12Nc1ccccc1S2` (centres undefined), the GI50 in the test on UACC-62 melanoma is 14.7 µM; in the test with NCI-H23 lung, 19.3 µM; in the test with K-562 leukemia, 31.8 µM; in the test on SF-539 CNS, 20.8 µM; in the test on ACHN renal, 32.2 µM; in the test with SF-268 CNS, 23.6 µM. Also, the GI50 in the test on CCRF-CEM leukemia was over 42 µM; in the test with KM12 colon, 26.5 µM; with U251 CNS it was 21.4 µM; in the test with RXF 393 renal it was 16.9 µM. Besides, the TGI with UACC-62 melanoma is 36.4 µM; in the test with NCI-H23 lung it was 47.7 µM; with K-562 leukemia, over 93 µM; in the test on SF-539 CNS it was over 54.9 µM; in the test with ACHN renal it was over 100 µM; in the test on SF-268 CNS, 70.8 µM. For the same compound, the TGI is over 67.6 µM in the test with CCRF-CEM leukemia, over 68.4 µM in the test on KM12 colon, over 55 µM with U251 CNS and over 52.7 µM in the test with RXF 393 renal.
For `CC(=O)OC1(C)C(=O)OC1(C)C(C)=O` (centres undefined), the TGI with UACC-62 melanoma, in the test with NCI-H23 lung, with K-562 leukemia, with SF-539 CNS, with ACHN renal and in the test on SF-268 CNS was over 100 µM in each case. Further, the TGI in the test with CCRF-CEM leukemia, in the test with KM12 colon, with U251 CNS and in the test on RXF 393 renal was over 100 µM throughout.
In the case of `CO[C@@H]1/C=C(C)/C=C/[C@@H](C)/C=C(\C)C(=O)OC(/C(C)=C/C=C(\C)CNC(=O)[C@H](CO)NC=O)[C@@H](C)/C=C/C=C/[C@H](OC)CC/C=C(C)/C=C/C1` (some centres undefined), the GI50 is under 0.005 µM in the test with UACC-62 melanoma; under 0.005 µM with NCI-H23 lung; under 0.005 µM with K-562 leukemia; under 0.005 µM in the test on SF-539 CNS; 0.00904 µM in the test on ACHN renal; under 0.005 µM in the test on SF-268 CNS. Also, the GI50 with CCRF-CEM leukemia is under 0.005 µM; with KM12 colon it was under 0.005 µM; in the test with U251 CNS, under 0.005 µM; with RXF 393 renal, 0.285 µM. Further, the TGI in the test with UACC-62 melanoma was under 0.005 µM; in the test on NCI-H23 lung, 0.266 µM; in the test with K-562 leukemia, 0.238 µM; with SF-539 CNS, 0.199 µM; in the test on ACHN renal, 0.187 µM; in the test with SF-268 CNS it was 1.09 µM. Also, the TGI in the test with CCRF-CEM leukemia worked out at 16.5 µM; in the test on KM12 colon, 8 µM; with U251 CNS, 0.214 µM; in the test on RXF 393 renal, 0.808 µM.
